In the kinase profiling compilation of Christmann-Franck et al. (2016):

What was measured:
Test in all cases: KINOMEscan competition binding
Settings in all cases: compound 10.0 µM
[1] = target: BMPR2 (human) (UniProt Q13873)
[2] = target: CAMK1D (human) (UniProt Q8IU85)
[3] = target: CAMK1G (human) (UniProt Q96NX5)
[4] = target: CAMK4 (human) (UniProt Q16566)
[5] = target: CDK3 (human) (UniProt Q00526)
[6] = target: CHEK1 (human) (UniProt O14757)
[7] = target: CHUK (human) (UniProt O15111)
[8] = target: CLK1 (human) (UniProt P49759)
[9] = target: CLK2 (human) (UniProt P49760)
[10] = target: DAPK2 (human) (UniProt Q9UIK4)
Sequence of DAPK2 (human) (Q9UIK4 whole entry, looked up): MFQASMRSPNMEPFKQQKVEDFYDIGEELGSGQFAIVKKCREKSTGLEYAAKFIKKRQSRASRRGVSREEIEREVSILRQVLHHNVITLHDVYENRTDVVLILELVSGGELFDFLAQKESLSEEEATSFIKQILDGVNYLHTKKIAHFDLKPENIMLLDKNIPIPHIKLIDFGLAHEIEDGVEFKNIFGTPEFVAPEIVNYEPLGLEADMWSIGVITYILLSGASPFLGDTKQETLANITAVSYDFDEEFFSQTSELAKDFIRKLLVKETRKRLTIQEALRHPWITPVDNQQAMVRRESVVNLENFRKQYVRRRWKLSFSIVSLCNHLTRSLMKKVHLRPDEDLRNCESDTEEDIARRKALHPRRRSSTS

[11] = target: DCLK3 (human) (UniProt Q9C098)
Sequence of DCLK3 (human) (Q9C098 whole entry, looked up): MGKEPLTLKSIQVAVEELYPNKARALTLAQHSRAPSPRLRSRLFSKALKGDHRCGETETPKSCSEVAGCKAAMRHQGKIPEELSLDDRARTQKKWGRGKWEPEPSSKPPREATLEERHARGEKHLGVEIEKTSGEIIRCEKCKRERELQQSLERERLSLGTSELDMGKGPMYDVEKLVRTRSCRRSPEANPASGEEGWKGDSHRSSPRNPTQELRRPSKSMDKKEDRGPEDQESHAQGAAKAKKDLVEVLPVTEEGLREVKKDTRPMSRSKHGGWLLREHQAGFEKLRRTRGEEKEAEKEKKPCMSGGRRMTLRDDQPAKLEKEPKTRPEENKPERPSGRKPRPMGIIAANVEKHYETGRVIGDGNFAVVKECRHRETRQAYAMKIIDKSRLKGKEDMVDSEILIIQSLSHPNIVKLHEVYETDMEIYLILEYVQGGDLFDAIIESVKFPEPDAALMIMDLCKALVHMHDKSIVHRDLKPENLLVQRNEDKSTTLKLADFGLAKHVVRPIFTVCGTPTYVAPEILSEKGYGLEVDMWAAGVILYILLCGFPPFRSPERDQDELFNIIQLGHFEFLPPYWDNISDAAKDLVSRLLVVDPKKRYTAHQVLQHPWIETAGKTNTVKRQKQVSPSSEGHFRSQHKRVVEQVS

[12] = target: EPHA2 (human) (UniProt P29317)
[13] = target: FGFR1 (human) (UniProt P11362)
[14] = target: FGR (human) (UniProt P09769)
Sequence of FGR (human) (P09769 whole entry, looked up): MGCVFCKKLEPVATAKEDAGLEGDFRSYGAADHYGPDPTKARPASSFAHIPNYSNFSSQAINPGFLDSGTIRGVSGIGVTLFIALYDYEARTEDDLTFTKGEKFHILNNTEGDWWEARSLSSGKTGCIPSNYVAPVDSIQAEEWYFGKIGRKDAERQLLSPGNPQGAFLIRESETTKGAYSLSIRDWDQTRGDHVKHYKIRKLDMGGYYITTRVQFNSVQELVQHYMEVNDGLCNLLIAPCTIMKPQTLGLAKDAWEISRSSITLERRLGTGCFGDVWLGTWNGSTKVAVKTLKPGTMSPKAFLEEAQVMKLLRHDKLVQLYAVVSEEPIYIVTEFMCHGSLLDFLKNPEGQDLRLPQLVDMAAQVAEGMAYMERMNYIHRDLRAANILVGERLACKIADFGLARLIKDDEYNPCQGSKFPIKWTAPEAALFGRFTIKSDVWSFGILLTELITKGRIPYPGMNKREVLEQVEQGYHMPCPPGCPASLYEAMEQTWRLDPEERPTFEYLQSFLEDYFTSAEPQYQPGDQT

[15] = target: FLT1 (human) (UniProt P17948)
[16] = target: HIPK1 (human) (UniProt Q86Z02)
[17] = target: IGF1R (human) (UniProt P08069)
[18] = target: INSR (human) (UniProt P06213)
[19] = target: ITK (human) (UniProt Q08881)
[20] = target: LATS2 (human) (UniProt Q9NRM7)
[21] = target: MAP2K1 (human) (UniProt Q02750)
[22] = target: MAP2K3 (human) (UniProt P46734)
Sequence of MAP2K3 (human) (P46734 whole entry, looked up): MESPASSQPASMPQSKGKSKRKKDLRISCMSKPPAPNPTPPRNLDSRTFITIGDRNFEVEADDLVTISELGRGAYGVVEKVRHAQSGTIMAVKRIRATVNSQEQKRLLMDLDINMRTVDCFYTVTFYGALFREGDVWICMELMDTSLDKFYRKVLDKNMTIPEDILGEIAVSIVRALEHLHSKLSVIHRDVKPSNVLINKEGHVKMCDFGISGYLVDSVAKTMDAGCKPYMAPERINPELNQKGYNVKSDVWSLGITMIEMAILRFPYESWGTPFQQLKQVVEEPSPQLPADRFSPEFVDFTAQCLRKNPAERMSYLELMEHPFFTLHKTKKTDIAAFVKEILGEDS

[23] = target: MAP3K10 (human) (UniProt Q02779)
Sequence of MAP3K10 (human) (Q02779 whole entry, looked up): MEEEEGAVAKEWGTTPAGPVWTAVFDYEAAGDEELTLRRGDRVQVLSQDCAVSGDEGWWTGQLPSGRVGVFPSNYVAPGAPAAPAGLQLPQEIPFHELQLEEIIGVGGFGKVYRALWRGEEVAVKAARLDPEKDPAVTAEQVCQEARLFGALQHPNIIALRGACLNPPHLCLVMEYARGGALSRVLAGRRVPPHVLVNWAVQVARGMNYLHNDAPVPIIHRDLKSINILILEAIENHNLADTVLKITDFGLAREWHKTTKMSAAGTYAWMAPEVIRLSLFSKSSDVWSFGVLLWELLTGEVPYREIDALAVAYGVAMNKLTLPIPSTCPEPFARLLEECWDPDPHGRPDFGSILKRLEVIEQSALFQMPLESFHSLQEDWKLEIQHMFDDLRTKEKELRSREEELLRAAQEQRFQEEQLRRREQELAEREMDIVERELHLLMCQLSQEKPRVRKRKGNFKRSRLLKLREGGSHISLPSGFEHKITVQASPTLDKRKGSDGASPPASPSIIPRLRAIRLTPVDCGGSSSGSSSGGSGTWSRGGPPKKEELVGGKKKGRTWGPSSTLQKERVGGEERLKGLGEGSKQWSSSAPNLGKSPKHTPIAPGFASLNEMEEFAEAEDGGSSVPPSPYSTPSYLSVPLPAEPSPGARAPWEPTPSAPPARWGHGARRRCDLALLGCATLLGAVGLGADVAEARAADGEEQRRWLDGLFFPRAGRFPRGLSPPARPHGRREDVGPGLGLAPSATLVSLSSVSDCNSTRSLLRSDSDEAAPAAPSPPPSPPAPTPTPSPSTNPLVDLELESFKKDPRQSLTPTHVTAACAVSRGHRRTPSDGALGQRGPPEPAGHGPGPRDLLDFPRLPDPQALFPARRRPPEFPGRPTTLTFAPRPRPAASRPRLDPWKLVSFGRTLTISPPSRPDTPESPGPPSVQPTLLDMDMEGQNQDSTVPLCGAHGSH

[24] = target: MAP3K5 (human) (UniProt Q99683)
[25] = target: MERTK (human) (UniProt Q12866)
[26] = target: MKNK2 (human) (UniProt Q9HBH9)
[27] = target: MUSK (human) (UniProt O15146)
[28] = target: MYO3B (human) (UniProt Q8WXR4)
[29] = target: PIK3C2B (human) (UniProt O00750)
[30] = target: PKN2 (human) (UniProt Q16513)
Sequence of PKN2 (human) (Q16513 whole entry, looked up): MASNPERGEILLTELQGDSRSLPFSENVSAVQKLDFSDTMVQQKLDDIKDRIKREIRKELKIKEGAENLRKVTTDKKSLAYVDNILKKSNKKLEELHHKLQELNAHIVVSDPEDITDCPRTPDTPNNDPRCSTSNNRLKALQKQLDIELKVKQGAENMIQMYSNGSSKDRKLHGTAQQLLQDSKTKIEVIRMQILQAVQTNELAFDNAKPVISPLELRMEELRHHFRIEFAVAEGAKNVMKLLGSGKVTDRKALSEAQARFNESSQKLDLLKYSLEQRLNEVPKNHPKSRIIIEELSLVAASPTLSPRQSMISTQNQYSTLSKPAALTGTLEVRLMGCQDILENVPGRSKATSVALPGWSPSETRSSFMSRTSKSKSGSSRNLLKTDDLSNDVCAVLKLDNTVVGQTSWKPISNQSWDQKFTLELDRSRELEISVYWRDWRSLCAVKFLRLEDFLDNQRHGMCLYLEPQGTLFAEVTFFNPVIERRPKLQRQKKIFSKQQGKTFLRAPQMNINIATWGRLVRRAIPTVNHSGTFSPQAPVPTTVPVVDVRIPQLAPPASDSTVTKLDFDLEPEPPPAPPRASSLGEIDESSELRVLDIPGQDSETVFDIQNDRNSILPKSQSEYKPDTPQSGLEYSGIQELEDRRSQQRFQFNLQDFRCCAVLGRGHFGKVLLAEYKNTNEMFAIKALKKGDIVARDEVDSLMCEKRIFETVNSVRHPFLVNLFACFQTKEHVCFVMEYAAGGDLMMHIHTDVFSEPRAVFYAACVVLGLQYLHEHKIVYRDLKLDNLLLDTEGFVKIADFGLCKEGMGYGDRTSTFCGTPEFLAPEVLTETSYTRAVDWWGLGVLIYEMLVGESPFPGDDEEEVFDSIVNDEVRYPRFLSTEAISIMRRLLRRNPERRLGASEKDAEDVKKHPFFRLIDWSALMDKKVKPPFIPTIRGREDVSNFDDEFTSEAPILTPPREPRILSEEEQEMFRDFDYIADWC

[31] = target: PRKAA1 (human) (UniProt Q13131)
[32] = target: PRKD1 (human) (UniProt Q15139)
[33] = target: PRKD2 (human) (UniProt Q9BZL6)
[34] = target: ROCK2 (human) (UniProt O75116)
[35] = target: RPS6KA1 KD1 (human) (UniProt Q15418)
[36] = target: RPS6KA6 KD1 (human) (UniProt Q9UK32)
[37] = target: SLK (human) (UniProt Q9H2G2)
[38] = target: STK32B (human) (UniProt Q9NY57)
[39] = target: TXK (human) (UniProt P42681)
[40] = target: ULK3 (human) (UniProt Q6PHR2)

Sequence of CHUK (human) (O15111 whole entry, looked up): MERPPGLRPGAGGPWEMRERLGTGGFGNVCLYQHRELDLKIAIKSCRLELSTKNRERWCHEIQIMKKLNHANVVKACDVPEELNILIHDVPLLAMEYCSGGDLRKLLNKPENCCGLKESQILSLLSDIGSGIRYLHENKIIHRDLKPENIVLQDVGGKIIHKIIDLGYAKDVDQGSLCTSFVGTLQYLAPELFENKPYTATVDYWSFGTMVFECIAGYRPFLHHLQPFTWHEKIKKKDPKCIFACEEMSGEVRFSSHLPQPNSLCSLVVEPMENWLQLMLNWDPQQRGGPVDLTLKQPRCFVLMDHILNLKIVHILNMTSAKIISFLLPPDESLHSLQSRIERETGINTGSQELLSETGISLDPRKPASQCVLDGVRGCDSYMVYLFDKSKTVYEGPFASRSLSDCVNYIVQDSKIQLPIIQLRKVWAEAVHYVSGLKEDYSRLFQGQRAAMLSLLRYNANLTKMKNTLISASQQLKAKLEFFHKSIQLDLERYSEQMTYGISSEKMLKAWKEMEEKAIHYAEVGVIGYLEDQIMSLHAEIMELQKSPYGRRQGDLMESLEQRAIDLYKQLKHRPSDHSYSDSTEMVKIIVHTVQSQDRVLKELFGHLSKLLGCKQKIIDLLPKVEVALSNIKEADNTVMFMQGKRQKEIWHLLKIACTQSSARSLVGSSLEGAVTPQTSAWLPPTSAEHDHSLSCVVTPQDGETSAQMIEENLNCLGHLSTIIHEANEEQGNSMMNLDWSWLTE
Sequence of CAMK4 (human) (Q16566 whole entry, looked up): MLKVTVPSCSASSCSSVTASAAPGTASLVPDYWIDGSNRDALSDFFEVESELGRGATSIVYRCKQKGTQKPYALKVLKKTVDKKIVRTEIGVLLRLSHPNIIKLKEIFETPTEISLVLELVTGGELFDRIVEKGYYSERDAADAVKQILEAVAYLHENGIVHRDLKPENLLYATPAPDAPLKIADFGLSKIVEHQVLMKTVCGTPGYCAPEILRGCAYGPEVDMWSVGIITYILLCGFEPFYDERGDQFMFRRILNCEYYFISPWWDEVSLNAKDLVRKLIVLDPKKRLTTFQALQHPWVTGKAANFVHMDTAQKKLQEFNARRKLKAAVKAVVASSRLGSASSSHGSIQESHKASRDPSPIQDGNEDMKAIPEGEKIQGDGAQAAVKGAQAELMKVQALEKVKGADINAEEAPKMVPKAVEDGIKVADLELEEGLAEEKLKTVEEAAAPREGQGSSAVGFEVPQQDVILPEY

SMILES | kinase still bound, per cent of control [1] [%] | kinase still bound, per cent of control [2] [%] | kinase still bound, per cent of control [3] [%] | kinase still bound, per cent of control [4] [%] | kinase still bound, per cent of control [5] [%] | kinase still bound, per cent of control [6] [%] | kinase still bound, per cent of control [7] [%] | kinase still bound, per cent of control [8] [%] | kinase still bound, per cent of control [9] [%] | kinase still bound, per cent of control [10] [%] | kinase still bound, per cent of control [11] [%] | kinase still bound, per cent of control [12] [%] | kinase still bound, per cent of control [13] [%] | kinase still bound, per cent of control [14] [%] | kinase still bound, per cent of control [15] [%] | kinase still bound, per cent of control [16] [%] | kinase still bound, per cent of control [17] [%] | kinase still bound, per cent of control [18] [%] | kinase still bound, per cent of control [19] [%] | kinase still bound, per cent of control [20] [%] | other results
O=C(NC1CC1)c1cccc(-c2ccc3c(NC(=O)C4CC4)n[nH]c3c2)c1 | 91 | 100 | 75 | 100 | 7.2 | 100 | 76 | 77 | 37 | 87 | 100 | 100 | 100 | 100 | 100 | 28 | 100 | 78 | 100 | 85 | kinase still bound, per cent of control [21]: 100%; kinase still bound, per cent of control [22]: 33%; kinase still bound, per cent of control [23]: 95%; kinase still bound, per cent of control [24]: 100%; kinase still bound, per cent of control [25]: 71%; kinase still bound, per cent of control [26]: 50%; kinase still bound, per cent of control [27]: 91%; kinase still bound, per cent of control [28]: 93%; kinase still bound, per cent of control [29]: 83%; kinase still bound, per cent of control [30]: 78%; kinase still bound, per cent of control [31]: 60%; kinase still bound, per cent of control [32]: 100%; kinase still bound, per cent of control [33]: 100%; kinase still bound, per cent of control [34]: 53%; kinase still bound, per cent of control [35]: 81%; kinase still bound, per cent of control [36]: 91%; kinase still bound, per cent of control [37]: 100%; kinase still bound, per cent of control [38]: 100%; kinase still bound, per cent of control [39]: 77%; kinase still bound, per cent of control [40]: 13%
C=CC(=O)Nc1cc(NC(=O)c2ccc(C)c(NC(=O)c3ccno3)c2)cc(C(F)(F)F)c1 | 100 | 83 | 91 | 100 | 97 | 96 | 100 | 93 | 80 | 97 | 100 | 28 | 100 | 63 | 100 | 97 | 63 | 92 | 93 | 88 | kinase still bound, per cent of control [21]: 87%; kinase still bound, per cent of control [22]: 100%; kinase still bound, per cent of control [23]: 100%; kinase still bound, per cent of control [24]: 100%; kinase still bound, per cent of control [25]: 99%; kinase still bound, per cent of control [26]: 100%; kinase still bound, per cent of control [27]: 100%; kinase still bound, per cent of control [28]: 100%; kinase still bound, per cent of control [29]: 100%; kinase still bound, per cent of control [30]: 100%; kinase still bound, per cent of control [31]: 100%; kinase still bound, per cent of control [32]: 100%; kinase still bound, per cent of control [33]: 100%; kinase still bound, per cent of control [34]: 85%; kinase still bound, per cent of control [35]: 99%; kinase still bound, per cent of control [36]: 86%; kinase still bound, per cent of control [37]: 100%; kinase still bound, per cent of control [38]: 100%; kinase still bound, per cent of control [39]: 93%; kinase still bound, per cent of control [40]: 97%
O=C1Nc2ccc(I)cc2/C1=C/c1cc(Br)c(O)c(Br)c1 | 100 | 76 | 44 | 100 | 90 | 100 | 100 | 34 | 15 | 1.9 | 100 | 83 | 77 | 86 | 100 | 11 | 97 | 100 | 96 | 81 | kinase still bound, per cent of control [21]: 68%; kinase still bound, per cent of control [22]: 46%; kinase still bound, per cent of control [23]: 93%; kinase still bound, per cent of control [24]: 100%; kinase still bound, per cent of control [25]: 100%; kinase still bound, per cent of control [26]: 89%; kinase still bound, per cent of control [27]: 74%; kinase still bound, per cent of control [28]: 8.6%; kinase still bound, per cent of control [29]: 10%; kinase still bound, per cent of control [30]: 99%; kinase still bound, per cent of control [31]: 100%; kinase still bound, per cent of control [32]: 100%; kinase still bound, per cent of control [33]: 100%; kinase still bound, per cent of control [34]: 55%; kinase still bound, per cent of control [35]: 42%; kinase still bound, per cent of control [36]: 51%; kinase still bound, per cent of control [37]: 100%; kinase still bound, per cent of control [38]: 100%; kinase still bound, per cent of control [39]: 100%; kinase still bound, per cent of control [40]: 12%
